Experimental data reported in US20240217957A1, “HETEROCYCLIC COMPOUND AND USE THEREOF” (TAKEDA PHARMACEUTICAL COMPANY LIMITED, priority 2022, published 2024).

Target: T1, human OX2 receptor (Homo sapiens, UniProt O43614)
T1 construct: expressed in transfected cells
T1 sequence (O43614 1-444): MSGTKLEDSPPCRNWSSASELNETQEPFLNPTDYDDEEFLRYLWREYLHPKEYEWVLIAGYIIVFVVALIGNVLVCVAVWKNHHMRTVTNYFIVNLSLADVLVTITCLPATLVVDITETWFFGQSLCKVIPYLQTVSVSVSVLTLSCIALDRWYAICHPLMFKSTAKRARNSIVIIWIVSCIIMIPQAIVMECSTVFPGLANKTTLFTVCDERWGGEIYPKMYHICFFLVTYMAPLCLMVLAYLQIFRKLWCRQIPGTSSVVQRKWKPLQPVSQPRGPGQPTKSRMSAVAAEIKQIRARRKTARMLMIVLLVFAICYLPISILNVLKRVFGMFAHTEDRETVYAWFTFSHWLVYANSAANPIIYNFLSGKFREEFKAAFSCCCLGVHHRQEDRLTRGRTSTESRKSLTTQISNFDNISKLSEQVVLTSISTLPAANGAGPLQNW
Experiment: Measurement of orexin type 2 receptor agonist activity (calcium fluorescence, Fluo-4 AM, FDSS)
Format: cell-based
Conditions: compound at 3 μM; CHO cells forcibly expressing human OX2 receptor; DMSO = 0%, 10 nM orexin A (human) = 100%
How it was run: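 Agonist response is expressed as % of the fluorescence change given by 10 nM human orexin A, with DMSO as 0%, read over 1 min 40 s on FDSS after compound addition. Cells: stable human OX2 (1-444) CHO-K1 clones, dye-loaded with Fluo-4 AM plus probenecid in HEPES-buffered HBSS with 0.1% BSA.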

| OX2R agonist activity (3 μM, %) [%] | SMILES |
| --- | --- |
| 99 | CS(=O)(=O)N[C@@H]1CN(C2=NOC(c3ncc(Br)cc3-c3c(F)cc(F)cc3F)C2)C[C@@H]1F (stereo partly drawn) [Example 85, N-[(3R,4S)-1-{5-[5-bromo-3-(2,4,6-trifluorophenyl)pyridin-2-yl]-4,5-dihydro-1,2-oxazol-3-yl}-4-fluoropyrrolidin-3-yl]methanesulfonamide] |
| 95 | Cc1cnc(C2(CF)CC(N3C[C@H](F)[C@H](NS(C)(=O)=O)C3)=NO2)c(-c2c(F)cccc2F)c1 (stereo partly drawn) [Example 86, N-[(3R,4S)-1-{5-[3-(2,6-difluorophenyl)-5-methylpyridin-2-yl]-5-(fluoromethyl)-4,5-dihydro-1,2-oxazol-3-yl}-4-fluoropyrrolidin-3-yl]methanesulfonamide] |
| 104 | CS(=O)(=O)N[C@H]1CCN(C2=NOC(CF)(c3ncc(F)cc3-c3c(F)cccc3F)C2)C1 (stereo partly drawn) [Example 87, N-[(3S)-1-{5-[3-(2,6-difluorophenyl)-5-fluoropyridin-2-yl]-5-(fluoromethyl)-4,5-dihydro-1,2-oxazol-3-yl}pyrrolidin-3-yl]methanesulfonamide] |
| 112 | CCS(=O)(=O)N[C@H]1CCN(C2=NOC(CF)(c3ncc(F)cc3-c3c(F)cccc3F)C2)C1 (stereo partly drawn) [Example 88, N-[(3S)-1-{5-[3-(2,6-difluorophenyl)-5-fluoropyridin-2-yl]-5-(fluoromethyl)-4,5-dihydro-1,2-oxazol-3-yl}pyrrolidin-3-yl]ethanesulfonamide] |

Second part, the compound before the results:

| SMILES | OX2R agonist activity (3 μM, %) [%] |
| --- | --- |
| Cc1cnc([C@@H]2CC(N3C[C@H](F)[C@H](NS(=O)(=O)N(C)C)C3)=NO2)c(-c2c(F)cccc2F)c1 [Example 79, N′-[(3R,4S)-1-{(5S)-5-[3-(2,6-difluorophenyl)-5-methylpyridin-2-yl]-4,5-dihydro-1,2-oxazol-3-yl}-4-fluoropyrrolidin-3-yl]-N,N-dimethylsulfuric diamide] | 100 |
| CS(=O)(=O)N[C@@H]1CN(C2=NOC(c3ncc(Cl)cc3-c3c(F)cccc3F)C2)C[C@@H]1F (stereo partly drawn) [Example 80, N-[(3R,4S)-1-{5-[5-chloro-3-(2,6-difluorophenyl)pyridin-2-yl]-4,5-dihydro-1,2-oxazol-3-yl}-4-fluoropyrrolidin-3-yl]methanesulfonamide] | 97 |
| Cc1cnc([C@@H]2CC(N3C[C@H](F)[C@H](NS(=O)(=O)C(F)F)C3)=NO2)c(-c2c(F)cccc2F)c1 [Example 81, N-[(3R,4S)-1-{(5S)-5-[3-(2,6-difluorophenyl)-5-methylpyridin-2-yl]-4,5-dihydro-1,2-oxazol-3-yl}-4-fluoropyrrolidin-3-yl]-1,1-difluoromethanesulfonamide] | 100 |
| Cc1cnc([C@@H]2CC(N3C[C@H](F)[C@H](NS(=O)(=O)CF)C3)=NO2)c(-c2c(F)cc(F)cc2F)c1 [Example 82, 1-fluoro-N-[(3R,4S)-4-fluoro-1-{(5S)-5-[5-methyl-3-(2,4,6-trifluorophenyl)pyridin-2-yl]-4,5-dihydro-1,2-oxazol-3-yl}pyrrolidin-3-yl]methanesulfonamide] | 98 |
| Cc1cnc([C@@H]2CC(N3C[C@H](F)[C@H](NS(=O)(=O)N(C)C)C3)=NO2)c(-c2c(F)cc(F)cc2F)c1 [Example 83, N′-[(3R,4S)-4-fluoro-1-{(5S)-5-[5-methyl-3-(2,4,6-trifluorophenyl)pyridin-2-yl]-4,5-dihydro-1,2-oxazol-3-yl}pyrrolidin-3-yl]-N,N-dimethylsulfuric diamide] | 103 |
| CS(=O)(=O)N[C@@H]1CN(C2=NOC(c3ncc(Cl)cc3-c3c(F)cc(F)cc3F)C2)C[C@@H]1F (stereo partly drawn) [Example 84, N-[(3R,4S)-1-{5-[5-chloro-3-(2,4,6-trifluorophenyl)pyridin-2-yl]-4,5-dihydro-1,2-oxazol-3-yl}-4-fluoropyrrolidin-3-yl]methanesulfonamide] | 97 |
